Assay results taken from PMC11181328 (Journal of Medicinal Chemistry, 2024).
Counter-ions that a name gives are not always drawn.

Tests used:
[1] = target: T1, KOR (Mus musculus, UniProt P33534); test: Competitive radioligand binding assay, KOR; conditions: for selectivity ratio δ/κ / selectivity ratio μ/κ: ratio of Ki values; for radioligand binding affinity (Ki, nM) KOR: [3H]diprenorphine, mKOR-CHO membranes
T1 construct: expressed in transfected cells; membrane homogenate

[2] = target: T2, DOR (Homo sapiens, UniProt P41143); test: Competitive radioligand binding assay, DOR
T2 construct: expressed in transfected cells; membrane homogenate

[3] = target: T1, KOR; test: [35S]-GTPγS functional assay, KOR; assay type: biochemical; conditions: for EC50: mKOR-CHO membranes; for Emax: percent of U50,488 full agonist control
[4] = target: T2, DOR; test: [35S]-GTPγS functional assay, DOR; assay type: biochemical; conditions: for EC50: hDOR-CHO membranes; for Emax: percent of SNC80 full agonist control
[5] = tested on: male Swiss Webster mice; test: Warm-water tail immersion assay, agonism (single dose screen and potency); assay type: in vivo, mouse; conditions: for antinociception compared to the vehicle group / percent MPE: single dose 10 mg/kg s.c.; for antinociception compared to the vehicle group: 20 min; for ED50: Mus musculus, sc, read-out: potency ED50 [95% CI] mg/kg, s.c., 20 min prior to tail withdrawal latency measurement, male Swiss Webster mice; for percent MPE: withdrawal latency 20 min after administration
[6] = target: T3, MOR (Mus musculus, UniProt P42866); test: Competitive radioligand binding assay, MOR; set-up: expressed in transfected cells; membrane homogenate; conditions: for radioligand binding affinity (Ki, nM) MOR: [3H]naloxone, mMOR-CHO membranes
[7] = target: T3, MOR; test: [35S]-GTPγS functional assay, MOR; assay type: biochemical; set-up: expressed in transfected cells; membrane homogenate; conditions: for EC50: mMOR-CHO membranes; for Emax: read-out: [35S]-GTPγS functional activity MOR Emax (%)
[8] = tested on: male Swiss Webster mice; test: Warm-water tail immersion assay, time course study; assay type: in vivo, mouse; conditions: morphine 10 mg/kg s.c.

Structure (SMILES)	Ki [1] [nM]	selectivity ratio δ/κ [1]	selectivity ratio μ/κ [1]	Ki [2] [nM]	EC50 [3] [nM]	Emax [3] [%]	EC50 [4] [nM]	Emax [4] [%]	antinociception compared to the vehicle group [5]	Ki [6] [nM]	EC50 [7] [nM]	Emax [7] [%]	ED50 [5] [mg/kg]	percent MPE [5] [%]	also measured
CN(C(=O)CCc1ccoc1)[C@@H]1CC[C@@]2(O)[C@H]3Cc4cccc5c4[C@@]2(CCN3CC2CC2)[C@H]1O5 [Compound 3, 17-Cyclopropylmethyl-4,5α-epoxy-6β-[3′-(furan-3″-yl)-N-methylpropanamido]-14β-hydroxymorphinan Hydrochloride]	34.5 ± 6.27	26	1	891 ± 52.5	246 ± 29.2	86.42 ± 0.63	5780 ± 829	66.9 ± 3.52	lack of significant antinociceptive effect	43.8 ± 2.85	224 ± 44.9	13.8 ± 1.86			
CN(C(=O)CCc1ccco1)[C@@H]1CC[C@@]2(O)[C@H]3Cc4cccc5c4[C@@]2(CCN3CC2CC2)[C@H]1O5 [Compound 11, 17-Cyclopropylmethyl-4,5α-epoxy-6β-[3′-(furan-2″-yl)-N-methylpropanamido]-14β-hydroxymorphinan Hydrochloride]	50.4 ± 6.84	11	2	532 ± 92.5	146 ± 27.1	109 ± 5.9	1100 ± 108	61.7 ± 4.27	lack of significant antinociceptive effect	93.6 ± 10.4	5620 ± 2130	22.9 ± 2.39			
CN(C(=O)CCc1ccco1)[C@H]1CC[C@@]2(O)[C@H]3Cc4cccc5c4[C@@]2(CCN3CC2CC2)[C@H]1O5 [Compound 9, 17-Cyclopropylmethyl-4,5α-epoxy-6α-[3′-(furan-2″-yl)N-methylpropanamido]-14β-hydroxymorphinan Hydrochloride]	1 ± 0.18	47	14	46.8 ± 8.37	18.4 ± 1.05	91.4 ± 1.46	212 ± 33.8	70.5 ± 5.9	lack of significant antinociceptive effect	14.1 ± 1.4	76.5 ± 48.5	11.2 ± 1.55			
CN(C(=O)CCc1ccco1)[C@@H]1CC[C@@]2(O)[C@H]3Cc4ccc(O)c5c4[C@@]2(CCN3CC2CC2)[C@H]1O5 [Compound 15, 17-Cyclopropylmethyl-3,14β-dihydroxy-4,5α-epoxy-6β-[3′-(furan-2″-yl)-N-methylpropanamido]morphinan Hydrochloride]	0.32 ± 0.03			7.32 ± 1.08	1.48 ± 0.17	100.7 ± 1	16.9 ± 2.57	38.6 ± 1.37		0.66 ± 0.05	3.58 ± 0.59	15.3 ± 0.5	0.251	≥ 80	radioligand binding affinity (Ki, nM) KOR [1]: subnanomolar; radioligand binding affinity (Ki, nM) MOR [6]: subnanomolar
O=C(/C=C/c1ccco1)N[C@H]1CC[C@@]2(O)[C@H]3Cc4ccc(O)c5c4[C@@]2(CCN3CC2CC2)[C@H]1O5 [Compound 22, 17-Cyclopropylmethyl-3,14β-dihydroxy-4,5α-epoxy-6α-[(2E)-3′-(furan-2″-yl)prop-2-enamido]morphinan Hydrochloride]	1.08 ± 0.03			8.75 ± 0.58	13.7 ± 2.52		21.1 ± 1.41			0.53 ± 0.06	2.97 ± 0.45		4.08	≥ 80	radioligand binding affinity (Ki, nM) MOR [6]: subnanomolar
O=C(CCc1ccoc1)N[C@H]1CC[C@@]2(O)[C@H]3Cc4cccc5c4[C@@]2(CCN3CC2CC2)[C@H]1O5 [Compound 2, 17-Cyclopropylmethyl-4,5α-epoxy-6α-[3′-(furan-3″-yl)propanamido]-14β-hydroxymorphinan Hydrochloride]	161 ± 11.8	1		154 ± 26.5	1010 ± 176	66.1 ± 5.2	429 ± 62.6	> 80	lack of significant antinociceptive effect	54.5 ± 2.01	200 ± 63.1	8.8 ± 0.55			
O=C(/C=C/c1ccco1)N[C@H]1CC[C@@]2(O)[C@H]3Cc4cccc5c4[C@@]2(CCN3CC2CC2)[C@H]1O5 [Compound 18, 17-Cyclopropylmethyl-4,5α-epoxy-6α-[(2E)-3′-(furan-2″-yl)prop-2-enamido]-14β-hydroxymorphinan Hydrochloride]	249 ± 32	2		456 ± 26.4	1370 ± 89	85.2 ± 6.52	1240 ± 147	75 ± 5.1	lack of significant antinociceptive effect	107 ± 8.37	1510 ± 948	16 ± 2.91			
CN(C(=O)CCc1ccoc1)[C@@H]1CC[C@@]2(O)[C@H]3Cc4ccc(O)c5c4[C@@]2(CCN3CC2CC2)[C@H]1O5 [Compound 7, 17-Cyclopropylmethyl-3,14β-dihydroxy-4,5α-epoxy-6β-[3′-(furan-3″-yl)-N-methylpropanamido]morphinan Hydrochloride]	0.28 ± 0.05			8.42 ± 0.9	0.99 ± 0.04	102 ± 1.05	19.2 ± 1.62	51.4 ± 2.78		0.53 ± 0.06	4.3 ± 0.47	12.2 ± 0.92	0.443	≥ 80	radioligand binding affinity (Ki, nM) KOR [1]: subnanomolar; radioligand binding affinity (Ki, nM) MOR [6]: subnanomolar
O=C(/C=C/c1ccco1)N[C@@H]1CC[C@@]2(O)[C@H]3Cc4cccc5c4[C@@]2(CCN3CC2CC2)[C@H]1O5 [Compound 20, 17-Cyclopropylmethyl-4,5α-epoxy-6β-[(2E)-3′-(furan-2″-yl)prop-2-enamido]-14β-hydroxymorphinan Hydrochloride]	7.03 ± 0.92	78	6	551 ± 64	178 ± 18.1	99.7 ± 5.88	860 ± 148	> 80	lack of significant antinociceptive effect	42.4 ± 2.34	1140 ± 984	12.8 ± 3			
O=C(CCc1ccco1)N[C@@H]1CC[C@@]2(O)[C@H]3Cc4cccc5c4[C@@]2(CCN3CC2CC2)[C@H]1O5 [Compound 12, 17-Cyclopropylmethyl-4,5α-epoxy-6β-[3′-(furan-2″-yl)propanamido]-14β-hydroxymorphinan Hydrochloride]	23.6 ± 3.79	34	1	800 ± 96.7	368 ± 31.8	86.83 ± 0.69	2400 ± 200	71 ± 6.1	lack of significant antinociceptive effect	27.5 ± 2.9	104 ± 24.2	10.8 ± 1.13			
CN(C(=O)CCc1ccco1)[C@H]1CC[C@@]2(O)[C@H]3Cc4ccc(O)c5c4[C@@]2(CCN3CC2CC2)[C@H]1O5 [Compound 13, 17-Cyclopropylmethyl-3,14β-dihydroxy-4,5α-epoxy-6α-[3′-(furan-2″-yl)-N-methylpropanamido]morphinan Hydrochloride]	0.12 ± 0.02			0.37 ± 0.07	0.04 ± 0.01	101 ± 2.5	0.66 ± 0.06	63.1 ± 2.6		0.15 ± 0.01	0.31 ± 0.04	15.3 ± 1.08	0.123	≥ 80	radioligand binding affinity (Ki, nM) KOR [1]: subnanomolar; radioligand binding affinity (Ki, nM) DOR ([2]; [3H]diprenorphine, hDOR-CHO membranes): subnanomolar; radioligand binding affinity (Ki, nM) MOR [6]: subnanomolar
CN(C(=O)/C=C/c1ccco1)[C@H]1CC[C@@]2(O)[C@H]3Cc4cccc5c4[C@@]2(CCN3CC2CC2)[C@H]1O5 [Compound 17, 17-Cyclopropylmethyl-4,5α-epoxy-6α-[(2E)-3′-(furan-2″-yl)N-methylprop-2-enamido]-14β-hydroxymorphinan Hydrochloride]	0.62 ± 0.04	110	27	68.4 ± 11.2	5.97 ± 0.42	110 ± 7.9	440 ± 32.2			16.8 ± 1.34	125 ± 17.1	22.9 ± 2.01	7.8	≥ 80	radioligand binding affinity (Ki, nM) KOR [1]: subnanomolar
CN1CC[C@]23c4c5ccc(O)c4O[C@H]2[C@@H](O)C=C[C@H]3[C@H]1C5 [morphine, (-)-Morphine sulfate pentahydrate, reference compound]														100	effects back to baseline [8]: 5 h; time of significant antinociception postinjection [8]: 30 to 60 min
O=C(CCc1ccco1)N[C@H]1CC[C@@]2(O)[C@H]3Cc4cccc5c4[C@@]2(CCN3CC2CC2)[C@H]1O5 [Compound 10, 17-Cyclopropylmethyl-4,5α-epoxy-6α-[3′-(furan-2″-yl)propanamido]-14β-hydroxymorphinan Hydrochloride]	73.8 ± 12.2	1	1	90.2 ± 13	442 ± 29.9	86.5 ± 1.55	348 ± 40.2	> 80	lack of significant antinociceptive effect	53.1 ± 6.06	278 ± 107	10.2 ± 1.33			Selectivity Ratio DOR/KOR ([1]; supplement csv): 1; Selectivity Ratio MOR/KOR ([1]; supplement csv): 1
